From ChEMBL document CHEMBL1743201, “Casarett and Doull's Toxicology The Basic Science of Poisons, 7th edition” (2008)

Each compound was assayed against T1, Glutathione S-transferase A1 (Homo sapiens, UniProt P08263) (assay: Substrates for human cytosolic glutathione transferase GSTA1). Settings: not given.
T1 sequence (P08263 whole entry): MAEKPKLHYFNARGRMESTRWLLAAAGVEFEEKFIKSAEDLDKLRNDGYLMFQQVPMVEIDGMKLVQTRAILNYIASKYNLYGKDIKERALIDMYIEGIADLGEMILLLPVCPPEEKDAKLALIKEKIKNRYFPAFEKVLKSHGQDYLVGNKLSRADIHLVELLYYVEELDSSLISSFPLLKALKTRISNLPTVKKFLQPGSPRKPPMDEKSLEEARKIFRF
Type: ADME
For `Cn1c(N)nc2ncc(-c3ccccc3)cc21` [2-AMINO-1-METHYL-6- PHENYLIMIDAZO[4,5- B]PYRIDINE], the Activity was “Substrate”. With `OC1c2ccc3ccc4ccccc4c3c2C2OC2C1O` (stereo unspecified) [BENZO[C]PHENANTHRENE DIOL EPOXIDE] the Activity was “Substrate”. `OC1c2ccc3c4ccccc4c4ccccc4c3c2C2OC2C1O` (stereo unspecified) [BENZO[G]CHRYSENE DIOL EPOXIDE] was tested, and the Activity was “Substrate”. `CS(=O)(=O)OCCCCOS(C)(=O)=O` [BUSULFAN] was tested, and the Activity was “Substrate”.

These compounds were tested against T2, Cytochrome P450 1A2 (Homo sapiens, UniProt P05177) (assay: Clinically relevant substrates of human liver microsomal P450 enzymes, isoform CYP1A2). Settings: microsomes.
T2 sequence (P05177 whole entry): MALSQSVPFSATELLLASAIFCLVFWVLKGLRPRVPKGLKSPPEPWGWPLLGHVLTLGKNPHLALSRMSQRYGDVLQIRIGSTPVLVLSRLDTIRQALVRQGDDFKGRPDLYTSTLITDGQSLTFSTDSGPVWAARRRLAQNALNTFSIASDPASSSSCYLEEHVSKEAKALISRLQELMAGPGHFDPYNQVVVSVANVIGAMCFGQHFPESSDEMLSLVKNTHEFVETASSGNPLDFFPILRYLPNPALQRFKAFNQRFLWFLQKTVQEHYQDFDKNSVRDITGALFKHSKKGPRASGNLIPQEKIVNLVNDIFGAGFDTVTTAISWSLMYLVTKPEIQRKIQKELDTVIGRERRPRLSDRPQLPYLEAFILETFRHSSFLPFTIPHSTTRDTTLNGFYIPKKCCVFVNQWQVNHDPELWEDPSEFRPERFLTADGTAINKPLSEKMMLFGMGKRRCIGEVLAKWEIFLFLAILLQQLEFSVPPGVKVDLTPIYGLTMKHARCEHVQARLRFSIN
Type: ADME
With `Cc1[nH]cnc1CN1CCc2c(c3ccccc3n2C)C1=O` [ALOSETRON] the Activity was “Substrate”. In the case of `Cn1c(=O)c2c(ncn2C)n(C)c1=O` [CAFFEINE], the Activity is reported as “Substrate”. With `CNCC[C@H](Oc1cccc2ccccc12)c1cccs1` [DULOXETINE] the Activity was “Substrate”. With `CCOc1ccc2nc3ccc(=O)cc-3oc2c1` [ETHOXYRESORUFIN] the Activity was “Substrate”. In the case of `CCOc1ccc(NC(C)=O)cc1` [PHENACETIN], the Activity is reported as “Substrate”. For `Nc1c2c(nc3ccccc13)CCCC2` [TACRINE], the Activity was “Substrate”. In the case of `Cn1c(=O)c2[nH]cnc2n(C)c1=O.O` [THEOPHYLLINE], the Activity is reported as “Substrate”. `Clc1ccc2nsnc2c1NC1=NCCN1` [TIZANIDINE] was tested, and the Activity was “Substrate”.

The compounds below were run against T3, Sulfotransferase 1E1 (Homo sapiens, UniProt P49888) (assay: Major substrate of human cytosolic sulfotransferase SULT1E1). Settings: not given.
T3 sequence (P49888 whole entry): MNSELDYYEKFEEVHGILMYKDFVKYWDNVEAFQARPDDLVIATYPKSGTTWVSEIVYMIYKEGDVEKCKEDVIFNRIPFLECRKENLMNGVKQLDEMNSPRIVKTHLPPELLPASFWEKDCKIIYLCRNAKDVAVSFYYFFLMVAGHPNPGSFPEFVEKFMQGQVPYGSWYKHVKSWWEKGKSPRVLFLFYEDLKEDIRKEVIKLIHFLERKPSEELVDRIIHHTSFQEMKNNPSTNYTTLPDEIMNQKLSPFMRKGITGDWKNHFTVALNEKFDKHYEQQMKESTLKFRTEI
Type: ADME
For `C[C@]12CC[C@@H]3c4ccc(O)c(O)c4CC[C@H]3[C@@H]1CC[C@@H]2O`, the Activity was “Substrate”. For `O=C(O)Cc1cn(-c2ccc(O)cc2)nc1-c1ccc(Cl)cc1`, the Activity was “Substrate”. For `C[C@]12CC[C@@H]3c4cc(O)c(O)cc4CC[C@H]3[C@@H]1CC[C@@H]2O`, the Activity was “Substrate”. In the case of `C[C@]12CC[C@@H]3c4cc(O)c(O)cc4CC[C@H]3[C@@H]1CCC2=O` [2-HYDROXYESTRONE], the Activity is reported as “Substrate”. For `C[C@]12CCc3c(ccc4cc(O)ccc34)[C@@H]1CCC2=O` [EQUILENIN], the Activity was “Substrate”. With `O=C1C[C@@H](c2ccc(O)cc2)Oc2cc(O)cc(O)c21` [NARINGENIN] the Activity was “Substrate”. With `CC/C(=C(\c1ccccc1)c1ccc(OCCN(C)C)cc1)c1ccccc1` [TAMOXIFEN] the Activity was “Substrate”.

Each compound was assayed against T4, Sulfotransferase 2A1 (Homo sapiens, UniProt Q06520) (assay: Major substrate of human cytosolic sulfotransferase SULT2A1). Settings: not given.
T4 sequence (Q06520 whole entry): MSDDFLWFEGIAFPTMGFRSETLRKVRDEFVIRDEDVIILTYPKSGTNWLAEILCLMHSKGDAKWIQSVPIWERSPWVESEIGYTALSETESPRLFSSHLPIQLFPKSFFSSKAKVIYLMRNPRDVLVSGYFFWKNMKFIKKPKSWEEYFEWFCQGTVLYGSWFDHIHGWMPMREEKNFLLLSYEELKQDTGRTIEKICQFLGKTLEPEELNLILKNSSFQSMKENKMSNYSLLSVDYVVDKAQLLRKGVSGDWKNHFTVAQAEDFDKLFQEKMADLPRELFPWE
Type: ADME
For `OCc1c2ccccc2c2ccc3cccc4ccc1c2c43`, the Activity was “Substrate”. In the case of `CCCC1O[C@@H]2C[C@H]3[C@@H]4CCC5=CC(=O)C=C[C@]5(C)[C@H]4[C@@H](O)C[C@]3(C)[C@]2(C(=O)CO)O1` (stereo partly specified) [BUDESONIDE], the Activity is reported as “Substrate”. With `CCN(CC)CCNc1ccc(CO)c2sc3ccccc3c(=O)c12` [HYCANTHONE] the Activity was “Substrate”.

Each compound was assayed against Sulfotransferase 1A1 (Homo sapiens, UniProt P50225) (assay: Major substrate of human cytosolic sulfotransferase SULT1A1). Settings: not given.
Sulfotransferase 1A1, sequence (P50225 whole entry): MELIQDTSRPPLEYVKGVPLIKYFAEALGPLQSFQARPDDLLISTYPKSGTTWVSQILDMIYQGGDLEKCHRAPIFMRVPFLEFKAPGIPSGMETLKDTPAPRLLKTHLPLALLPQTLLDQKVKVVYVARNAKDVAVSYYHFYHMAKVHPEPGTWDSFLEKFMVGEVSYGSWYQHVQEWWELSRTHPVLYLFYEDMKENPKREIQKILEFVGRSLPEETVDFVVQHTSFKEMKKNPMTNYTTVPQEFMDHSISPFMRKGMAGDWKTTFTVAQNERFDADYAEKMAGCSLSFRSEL
Type: ADME
In the case of `CCc1ccc(O)cc1`, the Activity is reported as “Substrate”. In the case of `Cn1c(NO)nc2ncc(-c3ccccc3)cc21`, the Activity is reported as “Substrate”. In the case of `CC(C)[N+](=O)[O-]`, the Activity is reported as “Substrate”. For `CN1CCc2cccc3c2[C@H]1Cc1ccc(O)c(O)c1-3` [APOMORPHINE], the Activity was “Substrate”. With `Nc1cc(N2CCCCC2)nc(N)[n+]1[O-]` [MINOXIDIL] the Activity was “Substrate”. With `Cc1ccc(O)cc1` [p-CRESOL] the Activity was “Substrate”.

What follows are compounds tested against T5, UDP-glucuronosyltransferase 1A8 (Homo sapiens, UniProt Q9HAW9) (assay: Substrate of human UDP-glucuronosyltransferase UGT1A8). Settings: not given.
T5 sequence (Q9HAW9 whole entry): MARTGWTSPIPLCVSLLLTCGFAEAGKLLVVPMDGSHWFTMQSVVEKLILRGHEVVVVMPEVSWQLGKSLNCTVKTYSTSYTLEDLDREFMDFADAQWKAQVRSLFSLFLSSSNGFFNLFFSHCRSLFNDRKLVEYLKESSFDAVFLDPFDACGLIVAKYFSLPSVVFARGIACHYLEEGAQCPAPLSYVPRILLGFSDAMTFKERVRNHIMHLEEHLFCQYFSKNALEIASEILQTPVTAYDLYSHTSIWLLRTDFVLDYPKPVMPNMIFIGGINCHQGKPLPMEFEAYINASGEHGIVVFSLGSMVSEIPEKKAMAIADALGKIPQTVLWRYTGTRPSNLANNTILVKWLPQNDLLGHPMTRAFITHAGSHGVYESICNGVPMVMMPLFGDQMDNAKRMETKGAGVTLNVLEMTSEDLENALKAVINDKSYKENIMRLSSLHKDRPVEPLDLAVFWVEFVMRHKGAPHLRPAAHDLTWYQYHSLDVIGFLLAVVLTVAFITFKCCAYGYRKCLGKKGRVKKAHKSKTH
Type: ADME
For `O=C1c2ccccc2C(=O)c2ccccc21` [ANTHRAQUINONE], the Activity was “Substrate”. With `CC(C)(Oc1ccc(C2CC2(Cl)Cl)cc1)C(=O)O` (stereo unspecified) [CIPROFIBRATE] the Activity was “Substrate”. For `CC(C)(Oc1ccc(Cl)cc1)C(=O)O` [CLOFIBRIC ACID], the Activity was “Substrate”. With `O=C(O)c1cc(-c2ccc(F)cc2F)ccc1O` [DIFLUNISAL] the Activity was “Substrate”. `O=C(O)c1cccnc1Nc1cccc(C(F)(F)F)c1` [NIFLUMIC ACID] was tested, and the Activity was “Substrate”. `Oc1cccc2cccnc12` [OXYQUINOLINE] was tested, and the Activity was “Substrate”.

What follows are compounds tested against T6, UDP-glucuronosyltransferase 1A9 (Homo sapiens, UniProt O60656) (assay: Substrate of human UDP-glucuronosyltransferase UGT1A9). Settings: not given.
T6 sequence (O60656 whole entry): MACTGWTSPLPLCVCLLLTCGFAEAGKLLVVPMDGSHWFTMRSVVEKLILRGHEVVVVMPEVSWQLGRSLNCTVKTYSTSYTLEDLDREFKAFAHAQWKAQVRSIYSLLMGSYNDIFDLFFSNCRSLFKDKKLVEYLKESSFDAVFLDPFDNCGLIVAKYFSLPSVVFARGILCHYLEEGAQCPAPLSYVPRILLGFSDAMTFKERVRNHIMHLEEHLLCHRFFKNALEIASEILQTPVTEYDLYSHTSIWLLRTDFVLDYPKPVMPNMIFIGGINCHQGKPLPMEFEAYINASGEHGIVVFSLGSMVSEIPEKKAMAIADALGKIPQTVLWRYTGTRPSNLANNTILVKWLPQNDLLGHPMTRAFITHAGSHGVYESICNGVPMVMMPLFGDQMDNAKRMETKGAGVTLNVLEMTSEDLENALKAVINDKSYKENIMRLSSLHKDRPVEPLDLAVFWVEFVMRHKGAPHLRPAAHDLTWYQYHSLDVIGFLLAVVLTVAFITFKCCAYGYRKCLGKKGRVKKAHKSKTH
Type: ADME
With `CCCCNc1cc(C(=O)O)cc(S(N)(=O)=O)c1Oc1ccccc1` [BUMETANIDE] the Activity was “Substrate”. In the case of `O=C(O)c1cc(-c2ccc(F)cc2F)ccc1O` [DIFLUNISAL], the Activity is reported as “Substrate”. `CC(C)OC(=O)C(C)(C)Oc1ccc(C(=O)c2ccc(Cl)cc2)cc1` [FENOFIBRATE] was tested, and the Activity was “Substrate”. With `CC(C)c1cccc(C(C)C)c1O` [PROPOFOL] the Activity was “Substrate”. With `O=C(O)c1ccccc1O` [SALICYLIC ACID] the Activity was “Substrate”.

The compounds below were run against T7, UDP-glucuronosyltransferase 2B7 (Homo sapiens, UniProt P16662) (assay: Substrate of human UDP-glucuronosyltransferase UGT2B7). Settings: not given.
T7 sequence (P16662 whole entry): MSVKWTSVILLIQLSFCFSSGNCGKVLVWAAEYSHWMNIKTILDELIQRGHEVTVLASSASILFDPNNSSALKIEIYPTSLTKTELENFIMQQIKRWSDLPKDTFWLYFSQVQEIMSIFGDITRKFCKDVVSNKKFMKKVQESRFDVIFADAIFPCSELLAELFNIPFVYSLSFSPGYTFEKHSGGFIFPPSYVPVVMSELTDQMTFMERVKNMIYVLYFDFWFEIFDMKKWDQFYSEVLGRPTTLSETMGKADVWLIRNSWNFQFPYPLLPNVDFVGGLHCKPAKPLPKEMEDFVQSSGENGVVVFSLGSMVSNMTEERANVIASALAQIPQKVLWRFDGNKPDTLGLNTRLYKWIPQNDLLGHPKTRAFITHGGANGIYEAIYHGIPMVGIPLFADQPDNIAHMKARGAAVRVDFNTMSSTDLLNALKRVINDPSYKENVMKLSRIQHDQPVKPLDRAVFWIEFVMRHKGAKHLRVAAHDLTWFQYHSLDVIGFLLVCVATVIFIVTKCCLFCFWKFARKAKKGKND
Type: ADME
For `CC(C(=O)O)c1ccc2oc(-c3ccc(Cl)cc3)nc2c1` (stereo unspecified) [BENOXAPROFEN], the Activity was “Substrate”. With `CC(C)(Oc1ccc(Cl)cc1)C(=O)O` [CLOFIBRIC ACID] the Activity was “Substrate”. For `CN1CC[C@]23c4c5ccc(O)c4O[C@H]2[C@@H](O[C@@H]2O[C@H](C(=O)O)[C@@H](O)[C@H](O)[C@H]2O)C=C[C@H]3[C@H]1C5` [MORPHINE GLUCURONIDE], the Activity was “Substrate”. With `C=CCN1CC[C@]23c4c5ccc(O)c4O[C@H]2C(=O)CC[C@@]3(O)[C@H]1C5` [NALOXONE] the Activity was “Substrate”. In the case of `CC(C(=O)O)c1ccc(C(=O)c2ccccc2)s1` (stereo unspecified) [TIAPROFENIC ACID], the Activity is reported as “Substrate”. In the case of `Cc1cn([C@H]2C[C@H](N=[N+]=[N-])[C@@H](CO)O2)c(=O)[nH]c1=O` [ZIDOVUDINE], the Activity is reported as “Substrate”. `Cc1cc(CC(=O)O)n(C)c1C(=O)c1ccc(Cl)cc1` [ZOMEPIRAC] was tested, and the Activity was “Substrate”.
